We go through six compounds from PubChem BioAssay (NCI).

What all share (assay): NCI anticancer screen, dose series, 48 h
The subject of test [1] is 786-0 renal.
In test [2] the test system is BT-549 breast.
Test [3] has as its system EKVX NSCLC.
In test [4] the test system is HCT-116 colon.
Test [5] has as its system KM12 colon.
In test [6] the test system is SK-MEL-2 melanoma.
The subject of test [7] is SK-MEL-5 melanoma.
Test [8] deals with UACC-62 melanoma.
The subject of test [9] is UO-31 renal.
Test [10] concerns MCF7 breast.

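Cultured in 96-well plates, cells were exposed to test compound for 48 hours across five concentrations. GI50: concentration for 50% inhibition of growth. Definition used: TGI = concentration required for complete inhibition of growth.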

Take `COCCOC(C)C(/C=N/NC(N)=S)=N/NC(N)=S` (stereo not drawn): the GI50 in [1] was greater than 100 µM; in test [2], greater than 100 µM; in test [3] it was 0.0905 µM; in test [4], 0.0189 µM; in test [5] it was greater than 100 µM; in test [6], greater than 100 µM. The GI50 in [7] was greater than 100 µM; in [8], greater than 100 µM; in test [9] it was 0.0513 µM. The TGI in test [1], in test [2], in test [3], in [4], in test [5] and in test [6] was greater than 100 µM each time. Besides, the TGI in test [7], in [8] and in test [9] was greater than 100 µM each time.

Turning to `Cc1ccc(NC2=C(Cl)C(=O)c3nc(C)ccc3C2=O)cc1`, the GI50 was 1.75 µM in test [1]; 1.45 µM in [2]; 1.55 µM in test [3]; 1.32 µM in [4]; 2.59 µM in test [5]; 1.82 µM in test [6]. In addition, the GI50 in [7] is 1.71 µM; in test [8] it was 1.57 µM; in test [9], 1.53 µM. In addition, the TGI in test [1] amounted to 3.23 µM; in test [2] it was 2.82 µM; in test [3], 2.92 µM; in test [4] it was 2.68 µM; in test [5], 12.1 µM; in test [6], 3.79 µM. The figures for the TGI in test [7], in test [8] and in test [9] were 3.1 µM, 2.97 µM and 2.88 µM, respectively.

In the case of `O=C(N/N=C/c1cc2ccccc2c2ccccc12)c1cc(O)c(O)c(O)c1`, the GI50 in test [1] was 2.77 µM; in test [2], 3.74 µM; in test [4], 3.17 µM; in test [5], 8.24 µM; in test [10], 3.68 µM; in test [6] it was 4.25 µM. For the same compound, the GI50 in [7] is 2.9 µM; in test [8] it was 2.75 µM; in test [9] it was 2.64 µM. Further, the TGI was found to be 7.2 µM in test [1]; 16.8 µM in test [2]; 12.4 µM in test [4]; 22.9 µM in test [5]; 19.7 µM in [10]; 15.9 µM in test [6]. Besides, the figures for the TGI in [7], in test [8] and in test [9] were 10.6 µM, 9.4 µM and 16.5 µM, respectively.

For `N#Cc1cccc(Nc2nccc(-c3cnn4ncccc34)n2)c1`, the GI50 is 0.00608 µM in test [1]; 0.00559 µM in [2]; 0.00443 µM in test [4]; 0.00632 µM in test [5]; 0.00856 µM in test [10]; 0.00458 µM in test [6]. The figures for the GI50 in test [7], in [8] and in [9] were 0.00618 µM, 0.00396 µM and 0.00719 µM, respectively. For the same compound, the TGI in [1] is greater than 25 µM; in test [2], 0.017 µM; in [4] it was 1.34 µM; in test [5], 0.0263 µM; in [10] it was greater than 25 µM; in [6] it was 0.0105 µM. Further, the TGI in [7] was 0.018 µM; in [8] it was 0.0116 µM; in [9] it was greater than 25 µM.

Turning to `COC(=O)/C(=C/N1CCN(C(=O)c2ccco2)C1=S)C(C)=O`, the GI50 was 11.2 µM in test [1]; 3.48 µM in [2]; 2.64 µM in test [3]; 7.42 µM in [4]; 3.04 µM in test [5]; 15.2 µM in test [6]. In addition, the values for the GI50 in [7], in [8] and in test [9] were 5.26 µM, 11.5 µM and 13.5 µM, respectively. The TGI in test [1] came to 27.7 µM; in test [2], 9.03 µM; in [3], 9.89 µM; in [4], 24.2 µM; in test [5], 9.78 µM; in [6], 51 µM. Further, the TGI was determined as 17.4 µM in [7], 28.3 µM in test [8] and 30.9 µM in test [9].

Regarding `C[C@]12CC[C@@H]3c4ccc(O)cc4CC[C@H]3[C@@H]1CC[C@@H]2NS(=O)(=O)c1cccc(Br)c1`, the GI50 in [1] is 3.25 µM; in [2] it was 3.05 µM; in test [4] it was 3.03 µM; in [5], 2.31 µM; in test [10], 3.74 µM; in [6] it was 3.68 µM. Further, the GI50 in test [7] was 1.77 µM; in [8] it was 3.19 µM; in test [9] it was 2.03 µM. The TGI is 10.4 µM in test [1]; 10.3 µM in test [2]; 10.2 µM in test [4]; 6.76 µM in test [5]; 10.9 µM in test [10]; 12 µM in test [6]. The TGI in [7] was 3.31 µM; in [8] it was 12.9 µM; in test [9], 8.72 µM.
